Measurements from article PMC7585386 (ACS chemical biology, 2020).

Molecular target: calcium-dependent protein kinase 1 (CDPK1, CDPK1^G; TGGT1_301440) (Toxoplasma gondii, UniProt Q9BJF5)
Test: kinase assay with recombinant purified enzyme in excess calcium
Type: biochemical

Cc1cccc(Cc2nn(C(C)(C)C)c3ncnc(N)c23)c1 [3-MB, 3-MB-PP1]
IC50: 79 nM
